Measurements: patent US20230355599A1, “BIOMARKERS FOR CBL, AND COMPOSITIONS AND METHODS FOR THEIR USE” (NURIX THERAPEUTICS, INC., priority 2022, published 2023)

Experiments:
[1] = system: A20 lymphoma tumor model; test: A20 lymphoma tumor model, anti-tumor activity; type: in vivo, mouse; details: dosed at 10, 30 or 60 mg/kg
Description: An elevated percentage of pHS1+CD8+ T cells correlated with potent anti-tumor effects in mouse syngeneic tumor models and defined a biomarker therapeutic range. At this therapeutic range, approximately 50% proximal biomarker pHS1 correlates with the efficacious range.

[2] = system: phosphorylated PLCγ2; test: Phosphorylated PLCγ2 in circulating CD8+ T cells after oral dosing of cynomolgus monkeys (flow cytometry, ex vivo anti-CD3/CD28 stimulation)
Procedure: (§1) To assess these proximal biomarkers of Cbl-b inhibition on CD8^+ T cells, pharmacodynamic analysis was performed in conjunction with a pharmacokinetic study conducted at Charles River Laboratories. Circulating blood was obtained from cynomolgus monkeys treated with 0.3, 1, 3 or 10 mg/kg of Compound 23 after a single dose and after 3 doses. The response to Cbl-b inhibition on proximal biomarkers (pHS1, pPLCγ2, and pZAP70) was measured in CD8^+ T cells using flow cytometry. This technique is highly quantitative and can measure multiple phosphorylation markers in different cell populations within the same sample.
(§2) Compound 23 was formulated in vehicle (0.2% Tween 80 in DI water+1 eq HCL) and aliquoted into individual (not serially diluted) dosing solutions of 0.3, 1, 3 and 10 mg/mL by stirring for 5-10 min, vortexing, and sonicating again as necessary to produce an even suspension that was stirred constantly at 4° C. to achieve and maintain a homogenous suspension. To prepare vehicle, 0.2% Tween 80 in deionized (DI) water, water was measured into a beaker with continuous stirring. Tween 80 was added sequentially, and stirring continued until the solution dissolved; the solution was stored at 2-8° C.
(§3) For pharmacodynamic analysis, whole blood was obtained from cynomolgus monkeys and used for flow cytometry assays to evaluate phosphorylated biomarkers, pHS1, pPLCγ2, and pZAP70, in circulating CD8^+ T cells.
(§4) On the day of dosing, blood samples were collected via femoral venipuncture in accordance with test facility standard operating procedures. 1 mL/tube of whole blood was collected pre-dose (time 0) and at 0.5, 1, 2, 4, 6, and 24 hours post-dose and added into 2 types of TruCulture tubes (Myriad) for pharmacodynamic analysis. One tube contained media alone and is denoted as “Null”, and the second tube contained 2 μg/mL anti-CD3 and anti-CD28, which were prepared at Nurix prior to the study using cynomolgus specific anti-CD3 (BD Biosciences; SP34-2) and anti-CD28 (Bio X cell; CD28.2) and denoted as “CD3/CD28”. Tubes were shipped by overnight courier on cold pack the day of collection and analyzed for phosphorylated biomarkers of Cbl-b inhibition by flow cytometry.
(§5) Following PD collection, upon receipt of TruCulture tubes, each tube was inverted 5-6 times to ensure a mixed suspension of blood. 30 μg of goat anti-mouse IgG (H+L) antibody (Invitrogen) was added to cross-link the stimulation antibodies and induce synchronized cellular stimulation. Cells were stimulated for 60 minutes alongside non-stimulated controls for each time point.
All buffers (Phosflow Lyse/Fix Buffer 5×, Phosflow Perm Buffer I; BD Biosciences) were prepared according to the manufacturer's instructions. […]

[3] = system: phosphorylated ZAP70; test: Phosphorylated ZAP70 in circulating CD8+ T cells after oral dosing of cynomolgus monkeys (flow cytometry, ex vivo anti-CD3/CD28 stimulation)
Procedure: as §1, §2, §3, §4, §5
All buffers (Phosflow Lyse/Fix Buffer 5×, Phosflow Perm Buffer I; BD Biosciences) were prepared according to the manufacturer's instructions. After 60 minutes of goat anti-mouse IgG (H+L) antibody stimulation, one volume of blood was mixed with 20 volumes of pre-warmed BD Phosflow Lyse/Fix Buffer (1×) by repeated pipetting (8-10 times), then incubated in a 37° C. water bath for 10 min. Cells were washed and centrifuged at 500×g for 5 min (2×) with PBS. Following centrifugation, cell pellets were resuspended in cold BD Phosflow Perm Buffer I (BD) and incubated at 4° C. for 20 min. […]

[4] = system: pY180/pY511-ITK; test: Phosphoprotein screen in human whole blood with CBL inhibitor at 10 uM: ITK; type: cell-based; details: 1 hr 37° C., human whole blood 8 donors, anti-CD3/CD28 + crosslinker 60 minutes
Procedure: To identify proximal biomarkers of CBL-B inhibition in immune cells, a panel of phosphorylated proteins were screened in human whole blood incubated with CBL-B inhibitor and concomitant anti-CD3 and anti-CD28 antibodies. The effect of CBL-B inhibition was assessed across multiple cellular signaling networks.
Human heparinized whole blood from 8 donors was received after an overnight shipment at 4° C. The blood was plated, treated with CBL inhibitor at 10 uM and incubated at 37° C. for 60 minutes. After incubation, the cells were stimulated with anti-CD3/CD28 followed by a cross-linking antibody (30 μg of goat anti-mouse IgG (H+L) antibody (Invitrogen)). After 60 minutes, the cells were fixed, and stained using surface markers for T cells (CD3^+CD4^+& CD3^+CD8^+) and analyzed by flow cytometry for target phosphorylation of the following markers: pY180/pY511-ITK, pY397-HS1, pY759-PLCg2, pY783-PLCg1, pY525/pY526/pY348-SYK & pY319-Zap70.
Fold change of each biomarker was calculated with the following example equation: […]
Whole blood from eight human donors was collected in sodium heparin anti-coagulant treated with 10 μM of Compound 23 for 1 hr at 37° C. […] Fold change of % phosphorylation normalized to DMSO was quantitated in T cells (CD8^+) using flow cytometry is provided in FIGS. 6A-6B.

[5] = multiple doses of 10 mg/kg, 3 days of daily oral dosing
[6] = multiple doses of 10 mg/kg, 4 hours post dose
[7] = single dose oral 10 mg/kg, circulating CD8+ T cells, anti-CD3/CD28 stimulated

SMILES: C[C@H]1CCCN(Cc2cc3c(c(C(F)(F)F)c2)CN(c2cccc([C@]4(c5nncn5C)C[C@@H](C)C4)c2)C3=O)C1 [Compound 23]
- median survival time compared to the vehicle control [1]: prolonged median survival time
- tumor size compared to the vehicle control [1]: significantly smaller tumors
- phosphorylated PLCγ2 in comparison to baseline [2, 5]: significant increases
- time of peak increase of phosphorylated PLCγ2 [2, 6]: 76 h
- time of maximal signal, phosphorylated PLCγ2 ([2]; single dose oral 10 mg/kg): 2 hours post dose
- phosphorylated PLCγ2 in comparison to baseline [2, 7]: significant increases
- phosphorylated ZAP70 in comparison to baseline [3, 5]: significant increases
- time of peak increase of phosphorylated ZAP70 [3, 6]: 76 h
- time of maximal signal, phosphorylated ZAP70 ([3]; single dose oral 10 mg/kg): 2 hours post dose
- phosphorylated ZAP70 sustained after 24 hours ([3]; single dose oral 10 mg/kg, after 24 hours): significant increase
- phosphorylated ZAP70 in comparison to baseline [3, 7]: significant increases
- increased phosphorylation of ITK compared to DMSO control [4]: 3-4 fold
